Experimental data taken from PubChem BioAssay AID1963984 (Molecular Pharmacology Branch, DTP, NCI, 2024).

Tested on: 233499-124-R-J3-PDC spheroids with HUVEC/MSC, viability
Assay: Anticancer human tumor 233499-124-R-J3-PDC patient-derived colon adenocarcinoma cell line growth inhibition [PI3K]
Conditions: for IC50: curve of first compound; for viability, T/C: stronger effect = lower value; active = viability on the fitted dose curve at most 10% of control; inactive = the rest
Source text: Combinatorial screen of targeted agents with the PI3K inhibitors inavolisib, alpelisib, duvelisib, and copanlisib in multi-cell type tumor spheroids
A high-throughput screen of multi-cell type tumor spheroids was designed to identify active combinations of targeted small molecules and PI3K pathway inhibitors. Complex spheroids include a stromal component modeled by human endothelial cells (HUVEC) and fibroblasts modeled by human mesenchymal stem cells (MSCs). The concentration ranges selected for each drug and investigational agent were based upon clinically achievable concentrations if the clinical Cmax of the agent was known.
Compounds. The drugs and investigational agents: inavolisib (NSC800729), alpelisib (NSC765974), duvelisib (NSC772469), copanlisib (NSC816437), ipatasertib (NSC767898), afuresertib (NSC778305), talazoparib (NSC767125), sapanisertib (NSC764658), selumetinib (NSC741078), tovorafenib (DAY101, NSC766906), vemurafenib (NSC761431), ravoxertinib (NSC781343), sotorasib (NSC818433), MRTX1133 (NSC 836407), abemaciclib (NSC 768073), palbociclib (NSC758247), venetoclax (NSC 766270), SY5609 (NSC837396), enzalutamide (NSC755605), and darolutamide (NSC825331), were obtained from the National Cancer Institute (NCI) Developmental Therapeutics Program Chemical Repository. The FDA-approved anticancer drug set is available from the NCI Developmental Therapeutics Program. […] The stock solutions were prepared in dimethyl sulfoxide (DMSO, Sigma-Aldrich, St. Louis, MO, cat. D2650) at 800-fold the tested concentration and stored at -70 degrees C prior to their use. All drugs and investigational agents were tested over a range starting from a high concentration at or near the clinical Cmax and decreasing in half-log increments. If the clinical Cmax for an agent had not been determined, the highest concentration tested was 10 microM.
Cell Culture. All cells were maintained in an incubator at 37 degrees C and 5% CO2 with 95% humidity. The PDC lines were cultured according to standard operating procedures established by the NCI PDMR (https://pdmr.cancer.gov/sops/default.htm). All PDCs were thawed and cultured in Matrigel-coated flasks prepared with a working solution of 1X Ham's F-12 nutrient mix, without supplementation (Invitrogen, Waltham, MA, cat. 11765054), 100 U/mL penicillin-streptomycin (Invitrogen, cat. 15140122), and 2.5% Matrigel (Corning Inc., Corning, NY, cat. 354248) for the first three passages. The 354836-022-R-J1-PDC, 475296-252-R-J1-PDC, and 997726-040-R-J2-PDC lines were cultured in 6A media, which includes advanced DMEM/F-12 (Thermo Fisher Scientific, cat. 12634028), 10 mM HEPES (Thermo Fisher Scientific, cat. 15630080), 1X GlutaMAX supplement (Thermo Fisher Scientific, cat. 35050061), 0.1 mg/mL primocin (InvivoGen, San Diego, CA, cat. ant-pm-2), 10% defined fetal bovine serum, heat inactivated (HyClone Laboratories Inc., Logan, UT, cat. SH30070.03HI), 50% L-WRN conditioned media (ATCC, cat. CRL-3276), 1.25 mM N-Acetyl-L-cysteine (Sigma-Aldrich, cat. A9165), 10 mM nicotinamide (Sigma-Aldrich, cat. N0636), 1X B-27 supplement (Thermo Fisher Scientific, cat. 17504044), 1X N-2 supplement (Thermo Fisher Scientific, cat. 17502048), and 10 microM Y-27632 dihydrochloride (Tocris Bioscience, Bristol, United Kingdom, cat. 1254). The 624824-186-R-J2-PDC line was cultured in 6C/Colon 1B media, which includes all 6A media components plus 50 ng/mL human EGF recombinant protein (Thermo Fisher Scientific, cat. PHG0311). […]

[1] = second compound 0.0316 µM, first compound 0.0316 µM
[2] = second compound 0.0316 µM, first compound 0.1 µM
[3] = second compound 0.0316 µM, first compound 0.316 µM
[4] = second compound 0.0316 µM, first compound 1 µM
[5] = second compound 0.0316 µM, first compound 3.16 µM
[6] = second compound 0.0316 µM, first compound 10 µM
[7] = second compound 0.1 µM, first compound 0.0316 µM
[8] = second compound 0.1 µM, first compound 0.1 µM
[9] = second compound 0.1 µM, first compound 0.316 µM
[10] = second compound 0.1 µM, first compound 1 µM
[11] = second compound 0.1 µM, first compound 3.16 µM
[12] = second compound 0.1 µM, first compound 10 µM
[13] = second compound 0.316 µM, first compound 0.0316 µM
[14] = second compound 0.316 µM, first compound 0.1 µM
[15] = second compound 0.316 µM, first compound 0.316 µM
[16] = second compound 0.316 µM, first compound 1 µM
[17] = second compound 0.316 µM, first compound 3.16 µM
[18] = second compound 0.316 µM, first compound 10 µM
[19] = second compound 1 µM, first compound 0.0316 µM
[20] = second compound 1 µM, first compound 0.1 µM
[21] = second compound 1 µM, first compound 0.316 µM
[22] = second compound 1 µM, first compound 1 µM
[23] = second compound 1 µM, first compound 3.16 µM
[24] = second compound 1 µM, first compound 10 µM
[25] = second compound 3.16 µM, first compound 0.0316 µM
[26] = second compound 3.16 µM, first compound 0.1 µM
[27] = second compound 3.16 µM, first compound 0.316 µM
[28] = second compound 3.16 µM, first compound 1 µM
[29] = second compound 3.16 µM, first compound 3.16 µM
[30] = second compound 3.16 µM, first compound 10 µM
[31] = second compound 10 µM, first compound 0.0316 µM
[32] = second compound 10 µM, first compound 0.1 µM
[33] = second compound 10 µM, first compound 0.316 µM
[34] = second compound 10 µM, first compound 1 µM
[35] = second compound 10 µM, first compound 3.16 µM
[36] = second compound 10 µM, first compound 10 µM
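Note: spheroids exposed to agents for seven days before readout.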
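Throughout, for viability, T/C: percent viability relative to DMSO vehicle control taken as 100%.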

CNC(=O)c1ccc(N2C(=S)N(c3ccc(C#N)c(C(F)(F)F)c3)C(=O)C2(C)C)cc1F + CC(Nc1ncnc2nc[nH]c12)c1cc2cccc(Cl)c2c(=O)n1-c1ccccc1
> 10 µM: IC50 (second compound 0.0316 µM) | IC50 (second compound 0.1 µM) | IC50 (second compound 0.316 µM) | IC50 (second compound 1 µM) | IC50 (second compound 3.16 µM) | IC50 (second compound 10 µM)
inactive: viability, T/C [1] 106% | viability, T/C [2] 92.8% | viability, T/C [3] 88.1% | viability, T/C [4] 94.5% | viability, T/C [5] 79.7% | viability, T/C [6] 63.6% | viability, T/C [7] 101% | viability, T/C [8] 81% | viability, T/C [9] 96.5% | viability, T/C [10] 76.3% | viability, T/C [11] 80.8% | viability, T/C [12] 83.9% | viability, T/C [13] 102% | viability, T/C [14] 90.1% | viability, T/C [15] 92.6% | viability, T/C [16] 80.5% | viability, T/C [17] 71.7% | viability, T/C [18] 52.6% | viability, T/C [19] 81.5% | viability, T/C [20] 95.7% | viability, T/C [21] 96.5% | viability, T/C [22] 77.4% | viability, T/C [23] 78.2% | viability, T/C [24] 68.3% | viability, T/C [25] 107% | viability, T/C [26] 76.6% | viability, T/C [27] 104% | viability, T/C [28] 87.6% | viability, T/C [29] 80.8% | viability, T/C [30] 68.4% | viability, T/C [31] 85.7% | viability, T/C [32] 97.3% | viability, T/C [33] 93.3% | viability, T/C [34] 95.6% | viability, T/C [35] 60.9% | viability, T/C [36] 58.3%

CC1(C)CCC(CN2CCN(c3ccc(C(=O)NS(=O)(=O)c4ccc(NCC5CCOCC5)c([N+](=O)[O-])c4)c(Oc4cnc5[nH]ccc5c4)c3)CC2)=C(c2ccc(Cl)cc2)C1 + CC(Nc1ncnc2nc[nH]c12)c1cc2cccc(Cl)c2c(=O)n1-c1ccccc1
4.74 µM: IC50 (second compound 3.16 µM)
5.69 µM: IC50 (second compound 0.0316 µM)
5.39 µM: IC50 (second compound 1 µM)
active: viability, T/C [6] 6.26% | viability, T/C [12] 2.9% | viability, T/C [18] 2.85% | viability, T/C [24] 2.36% | viability, T/C [30] 2.35% | viability, T/C [36] 5.61%
5.6 µM: IC50 (second compound 0.1 µM)
5.61 µM: IC50 (second compound 0.316 µM)
5.45 µM: IC50 (second compound 10 µM)
inactive: viability, T/C [1] 87.4% | viability, T/C [2] 101% | viability, T/C [3] 95.4% | viability, T/C [4] 96.6% | viability, T/C [5] 96.2% | viability, T/C [7] 89.9% | viability, T/C [8] 98.7% | viability, T/C [9] 87.5% | viability, T/C [10] 99.6% | viability, T/C [11] 106% | viability, T/C [13] 116% | viability, T/C [14] 92.6% | viability, T/C [15] 89.8% | viability, T/C [16] 95.4% | viability, T/C [17] 96.7% | viability, T/C [19] 96.5% | viability, T/C [20] 83.6% | viability, T/C [21] 103% | viability, T/C [22] 90.3% | viability, T/C [23] 91.2% | viability, T/C [25] 81.8% | viability, T/C [26] 84.7% | viability, T/C [27] 98.8% | viability, T/C [28] 97.1% | viability, T/C [29] 76% | viability, T/C [31] 79.6% | viability, T/C [32] 94% | viability, T/C [33] 86.8% | viability, T/C [34] 94.7% | viability, T/C [35] 93.1%

CC1(C)CCC(CN2CCN(c3ccc(C(=O)NS(=O)(=O)c4ccc(NCC5CCOCC5)c([N+](=O)[O-])c4)c(Oc4cnc5[nH]ccc5c4)c3)CC2)=C(c2ccc(Cl)cc2)C1 + CC(Nc1ccc2c(c1)OCCn1cc(N3C(=O)OCC3C(F)F)nc1-2)C(N)=O
inactive: viability, T/C (second compound 0.00316 µM, first compound 0.0316 µM) 99.3% | viability, T/C (second compound 0.00316 µM, first compound 0.1 µM) 94.1% | viability, T/C (second compound 0.00316 µM, first compound 0.316 µM) 71.9% | viability, T/C (second compound 0.00316 µM, first compound 1 µM) 109% | viability, T/C (second compound 0.00316 µM, first compound 3.16 µM) 90.1% | viability, T/C (second compound 0.01 µM, first compound 0.0316 µM) 86% | viability, T/C (second compound 0.01 µM, first compound 0.1 µM) 85.5% | viability, T/C (second compound 0.01 µM, first compound 0.316 µM) 96.3% | viability, T/C (second compound 0.01 µM, first compound 1 µM) 74.7% | viability, T/C (second compound 0.01 µM, first compound 3.16 µM) 65.7% | viability, T/C [1] 79.3% | viability, T/C [2] 66.2% | viability, T/C [3] 75.8% | viability, T/C [4] 73.6% | viability, T/C [5] 93.5% | viability, T/C [7] 60.9% | viability, T/C [8] 85.6% | viability, T/C [9] 86.5% | viability, T/C [10] 81% | viability, T/C [11] 78.8% | viability, T/C [13] 75.8% | viability, T/C [14] 69.3% | viability, T/C [15] 65.2% | viability, T/C [16] 77.2% | viability, T/C [17] 39.2% | viability, T/C [19] 66.8% | viability, T/C [20] 49% | viability, T/C [21] 47.4% | viability, T/C [22] 58.2% | viability, T/C [23] 50.1%
active: viability, T/C (second compound 0.00316 µM, first compound 10 µM) 3.01% | viability, T/C (second compound 0.01 µM, first compound 10 µM) 2.45% | viability, T/C [6] 3.53% | viability, T/C [12] 1.51% | viability, T/C [18] 4.28% | viability, T/C [24] 2.38%
5.38 µM: IC50 (second compound 0.00316 µM)
4.85 µM: IC50 (second compound 0.1 µM)
3.2 µM: IC50 (second compound 1 µM)
2.16 µM: IC50 (second compound 0.316 µM)
4.1 µM: IC50 (second compound 0.01 µM)
4.86 µM: IC50 (second compound 0.0316 µM)
